Reference: US9475841B2, “Melanoma antigen peptide and uses thereof” (INSERM (INSTITUT NATIONAL DE LA SANTE ET DE LA RECHERCHE …, priority 2012, dated 2016)
Residues, ends and D or L forms follow the SMILES beside them.

Legend:
[1] = system: DQ2-restricted T cell clone 4E2
[2] = system: DQ2-restricted 9C12 T cell clone; conditions: 5 h
[3] = system: DRβ1*1101 restricted T cell clone 1A5; conditions: 5 h
[4] = system: MELOE-1 specific CD4 T cell clones; test: Processing of epitopes by autologous DC loaded with antigen; TNF-α production of T cell clones; assay type: cell-based, human
Protocol: FIG. 4: Class II epitopes are naturally processed from MELOE-1 whole antigen. Autologous DC, were loaded (before or after fixation) with MELOE-12-46 (1 μM) or, as a negative control, with Melan-A16-40L peptide (1 μM), and matured. T cell clones were then stimulated with DC at a ratio 1:1, during 5 h in presence of Brefeldin A, then stained with APC-conjugated anti-CD3 mAb, fixed with 4% paraformaldehyde, labeled with PE-conjugated anti-TNF-α mAb and analyzed by flow cytometry. Histograms illustrated the % of TNF-α producing cells among CD3 positive T cells.
Monocytes were purified from PBMC of healthy donors by a CD14-enrichment kit, according the recommendations of the supplier (Stem Cell, France). Immature dendritic cells (iDC) were generated by culturing monocytes in RPMI supplemented with 20 mg/mL of human albumin, 1000 IU/mL of GM-CSF and 200 IU/mL of IL-4 for 5 days. Then, iDC were pulsed with the whole MELOE-1 (1 μM) protein or the modified Melan-A16-40 A27L as negative control (1 μM) and matured with 20 ng/mL of TNF-α and 50 μg/mL of PolyI:C for 4 hours at 37° C. Finally they were fixed for 1 minute with PBS/0.015% glutaraldehyde. Alternatively, iDC were first matured, fixed and then pulsed with antigens at the same concentration.
Alternatively, MELOE-1 specific CD4+ T cell clones were stimulated by autologous MELOE-1 loaded and matured DC at a 1:1 ratio. […]

[5] = system: DRβ1*0101 restricted T cell clone 5F9; test: Minimal peptides recognized by CD4 T cell clone (peptide titration, TNF-α production); assay type: cell-based, human; conditions: 5F9 T cell clone; 13-mer peptides
Protocol: FIG. 5: Minimal peptides recognized by MELOE-1 specific CD4 T cell clones. MELOE-1 specific CD4 T cell clones were incubated with various concentrations of the indicated peptides during 5 hours in presence of Brefeldin A. TNF-α production was assessed by intracellular labeling with an anti-TNF-α specific antibody. The core peptide sequence is indicated in bold on each figure panel, and black circles illustrate the best fitting peptide.
Our T cell clones were reactive against 20-mer peptides that are probably not the exact peptides naturally processed. In order to formally identify the minimal recognized epitopes, we tested shorter peptides derived from each of the MELOE-1 recognized regions, chosen on the basis of the core peptide sequence supposed to be recognized by the T cell clones (indicated in bold on FIG. 5).
Three shorter peptides were better recognized by the DQ2-restricted 9C12 T cell clone, the shortest one being MELOE-17-19 (13-mer), recognized with an EC50 of 100 nM. The deletion of the two amino acids in C-term strongly reduces T cell clone recognition. […] Nonetheless all of these clones recognized a series of shortened peptides, thus we cannot formally assess that the shortest ones will be the exact peptides naturally presented on class II molecules.

Molecule: CC[C@H](C)[C@H](NC(=O)[C@H](CCCNC(=N)N)NC(=O)[C@@H](N)CCC(=O)O)C(=O)N[C@@H](CO)C(=O)N[C@@H](CO)C(=O)N[C@H](C(=O)N[C@@H](CC(C)C)C(=O)N[C@@H](CC(N)=O)C(=O)N[C@@H](CC(=O)O)C(=O)N[C@@H](CCC(=O)O)C(=O)N[C@@H](CS)C(=O)N[C@@H](Cc1c[nH]c2ccccc12)C(=O)N1CCC[C@H]1C(=O)N[C@@H](C)C(=O)O)[C@@H](C)O [31-44, ERISSTLNDECWPA] (H-ERISSTLNDECWPA-OH; N-terminus and C-terminus assumed)
- EC50 ([1]; 5 h): 100 nM

Molecule: CC(C)C[C@H](NC(=O)[C@H](Cc1ccccc1)NC(=O)[C@H](CCC(N)=O)NC(=O)[C@H](CCC(=O)O)NC(=O)[C@H](CCCNC(=N)N)NC(=O)[C@H](CO)NC(=O)[C@@H](NC(=O)[C@H](C)NC(=O)[C@H](CCC(=O)O)NC(=O)[C@H](CC(=O)O)NC(=O)[C@@H]1CCCN1)[C@@H](C)O)C(=O)N1CCC[C@H]1C(=O)N[C@@H](CO)C(=O)O [MELOE-17-19, PDEATSREQFLPS] (H-PDEATSREQFLPS-OH; N-terminus and C-terminus assumed)
- EC50 [2]: 100 nM

Molecule: CC(C)C[C@H](NC(=O)[C@H](Cc1ccccc1)NC(=O)[C@@H](N)CCC(N)=O)C(=O)N1CCC[C@H]1C(=O)N[C@@H](CO)C(=O)N[C@@H](CCC(=O)O)C(=O)NCC(=O)N[C@@H](C)C(=O)N[C@@H](C)C(=O)N[C@@H](CS)C(=O)N1CCC[C@H]1C(=O)N1CCC[C@H]1C(=O)N[C@@H](Cc1c[nH]c2ccccc12)C(=O)O [MELOE-115-27, QFLPSEGAACPPW] (H-QFLPSEGAACPPW-OH; N-terminus and C-terminus assumed)
- EC50 [3]: 100 nM

Molecule: MSCVGYPDEATSREQFLPSEGAACPPWHPSERISSTLNDECWPASL [MELOE-1, MELOE-1 whole antigen (46 amino acids)]
- recognition by specific CD4 T cell clones of DC loaded after fixation ([4]; autologous DC loaded after DC fixation): only a weak recognition
- reactivity of the four T cell clones against loaded autologous DC ([4]; iDC loaded with 1 μM in serum-free medium, matured, then fixed): reactive

Molecule: RISSTLNDECWPA [32-44]
- recognition by T cell clone ([1]; 4E2 T cell clone, compared with 31-44): recognized to a lower extent

Molecule: SREQFLPSEGAAC [MELOE-112-24]
- recognition by T cell clone [5]: optimal shorter peptides

Molecule: TSREQFLPSEGAA [MELOE-111-23]
- recognition by T cell clone [5]: optimal shorter peptides
